Results reported in patent publication US12673961B2 (Agios Pharmaceuticals, Inc., priority 2022, dated 2026).

Molecular target: T1, human PAH with the R408W mutation (Homo sapiens, UniProt P00439, R408W)
T1 construct: expressed in transfected cells
T1 sequence (P00439 1-452 R408W): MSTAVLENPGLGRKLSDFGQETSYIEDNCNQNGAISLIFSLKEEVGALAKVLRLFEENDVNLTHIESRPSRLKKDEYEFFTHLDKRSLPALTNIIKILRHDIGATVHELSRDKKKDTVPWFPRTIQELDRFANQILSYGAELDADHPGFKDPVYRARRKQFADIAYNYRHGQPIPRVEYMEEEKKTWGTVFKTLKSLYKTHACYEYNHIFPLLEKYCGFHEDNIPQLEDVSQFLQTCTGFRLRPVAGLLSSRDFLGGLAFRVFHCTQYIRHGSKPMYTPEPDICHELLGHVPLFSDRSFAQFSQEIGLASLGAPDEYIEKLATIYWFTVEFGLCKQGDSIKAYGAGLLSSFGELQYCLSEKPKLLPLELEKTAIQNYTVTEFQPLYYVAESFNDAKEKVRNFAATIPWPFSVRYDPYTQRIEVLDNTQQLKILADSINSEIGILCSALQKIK
Test: Cell Based Phenylalanine Flux Assay;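 note: Ten-point dose curve from 2-fold serial dilutions, run in duplicate at 0.5% DMSO final, tracer step used 20 µM sepiapterin and 800 µM labeled phenylalanine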
Conditions: A375 cells expressing human R408W PAH; 24 hrs compound incubation; 13C-Tyrosine by LC-MS; average where tested multiple times; read-out: AC50

Row | Compound | AC50
1 | O=C(c1nnc(-c2ccccn2)o1)N1CCc2[nH]cnc2[C@H]1c1cc2c(C(F)(F)F)cccn2n1 [Example 826, (S)-(5-(pyridin-2-yl)-1,3,4-oxadiazol-2-yl)(4-(4-(trifluoromethyl)pyrazolo [1,5-a]pyridin-2-yl)-6,7-dihydro-1H-imidazo[4,5-c]pyridin-5(4H)-yl)methanone] | < 500 nM
2 | O=C(c1nnc(-c2ccccn2)o1)N1CCc2[nH]cnc2[C@@H]1c1cc2c(C(F)(F)F)cccn2n1 [Example 827, (R)-(5-(pyridin-2-yl)-1,3,4-oxadiazol-2-yl)(4-(4-(trifluoromethyl)pyrazolo [1,5-a]pyridin-2-yl)-6,7-dihydro-1H-imidazo[4,5-c]pyridin-5(4H)-yl)methanone] | > 5000 nM
3 | O=C(c1nnc(-c2cnn(C3CCC3)c2)o1)N1CCc2[nH]cnc2[C@@H]1c1cc2c(F)cccn2n1 [Example 833, (R)-(5-(1-cyclobutyl-1H-pyrazol-4-yl)-1,3,4-oxadiazol-2-yl)(4-(4-fluoropyrazolo[1,5-a]pyridin-2-yl)-6,7-dihydro-1H-imidazo [4,5-c]pyridin-5(4H)-yl) methanone] | > 5000 nM
4 | Cc1cccn2nc([C@H]3c4nc[nH]c4CCN3C(=O)c3ncnn3C)cc12 [Example 839, (R)-(1-methyl-1H-1,2,4-triazol-5-yl)(4-(4-methylpyrazolo[1,5-a]pyridin-2-yl)-6,7-dihydro-1H-imidazo[4,5-c]pyridin-5(4H)-yl)methanone] | 1000 to 5000 nM
5 | O=C(c1ccnn1C1CC1)N1CCc2[nH]cnc2[C@H]1c1cc2c(F)cccn2n1 [Example 848, (S)-(1-cyclopropyl-1H-pyrazol-5-yl)(4-(4-fluoropyrazolo[1,5-a]pyridin-2-yl)-6,7-dihydro-1H-imidazo[4,5-c]pyridin-5(4H)-yl)methanone] | < 500 nM
6 | Cc1cccn2nc([C@@H]3c4nc[nH]c4CCN3C(=O)c3cc(C(F)F)nn3C)cc12 [Example 867, (S)-(3-(difluoromethyl)-1-methyl-1H-pyrazol-5-yl)(4-(4-methylpyrazolo[1,5-a]pyridin-2-yl)-6,7-dihydro-1H-imidazo[4,5-c]pyridin-5(4H)-yl)methanone] | < 500 nM
7 | Cc1cccn2nc([C@H]3c4nc[nH]c4CCN3C(=O)c3nnc(-c4ccc(F)cn4)o3)cc12 [Example 874, (R)-(5-(5-fluoropyridin-2-yl)-1,3,4-oxadiazol-2-yl)(4-(4-methylpyrazolo[1,5-a]pyridin-2-yl)-6,7-dihydro-1H-imidazo[4,5-c]pyridin-5(4H)-yl)methanone] | > 5000 nM
8 | Cc1cc(-c2nnc(C(=O)N3CCc4[nH]cnc4[C@H]3c3cc4c(F)cccn4n3)o2)nn1C [Example 883, (S)-(5-(1,5-dimethyl-1H-pyrazol-3-yl)-1,3,4-oxadiazol-2-yl)(4-(4-fluoropyrazolo[1,5-a]pyridin-2-yl)-6,7-dihydro-1H-imidazo[4,5-c]pyridin-5(4H)-yl)methanone] | < 500 nM
9 | Cc1cccn2nc([C@@H]3c4nc[nH]c4CCN3C(=O)c3nnc(-c4cccnc4)o3)cc12 [Example 894, (S)-(4-(4-methylpyrazolo [1,5-a]pyridin-2-yl)-6,7-dihydro-1H-imidazo[4,5-c]pyridin-5(4H)-yl)(5-(pyridin-3-yl)-1,3,4-oxadiazol-2-yl) methanone] | < 500 nM
10 | Cc1cccc2cc([C@@H]3c4nc[nH]c4CCN3C(=O)c3nnc(-c4ncccc4F)o3)nn12 [Example 912, (S)-(5-(3-fluoropyridin-2-yl)-1,3,4-oxadiazol-2-yl)(4-(7-methylpyrazolo[1,5-a]pyridin-2-yl)-6,7-dihydro-1H-imidazo[4,5-c]pyridin-5(4H)-yl)methanone] | < 500 nM
11 | Cc1cccc2cc([C@H]3c4nc[nH]c4CCN3C(=O)c3nnc(-c4cnn(C(F)F)c4)o3)nn12 [Example 915, (R)-(5-(1-(difluoromethyl)-1H-pyrazol-4-yl)-1,3,4-oxadiazol-2-yl)(4-(7-methylpyrazolo[1,5-a]pyridin-2-yl)-6,7-dihydro-1H-imidazo[4,5-c]pyridin-5(4H)-yl)methanone] | > 5000 nM
12 | Cc1cccn2nc([C@H]3c4nc[nH]c4CCN3C(=O)c3nnc(C4CC4)o3)cc12 [Example 925, (R)-(5-cyclopropyl-1,3,4-oxadiazol-2-yl)(4-(4-methylpyrazolo[1,5-a]pyridin-2-yl)-6,7-dihydro-1H-imidazo[4,5-c]pyridin-5(4H)-yl)methanone] | > 5000 nM
13 | Cc1cccc2cc([C@H]3c4nc[nH]c4CCN3C(=O)c3nnc(C(C)(C)F)o3)nn12 [Example 939, (R)-(5-(2-fluoropropan-2-yl)-1,3,4-oxadiazol-2-yl)(4-(7-methylpyrazolo[1,5-a]pyridin-2-yl)-6,7-dihydro-1H-imidazo[4,5-c]pyridin-5(4H)-yl)methanone] | > 5000 nM
14 | O=C(c1ocnc1C(F)F)N1CCc2[nH]cnc2[C@H]1c1cc2cccc(Cl)n2n1 [Example 958, (S)-(4-(7-chloropyrazolo [1,5-a]pyridin-2-yl)-6,7-dihydro-1H-imidazo[4,5-c]pyridin-5(4H)-yl)(4-(difluoromethyl)oxazol-5-yl)methanone] | < 500 nM
15 | O=C(c1nnc(-c2cnccn2)o1)N1CCc2[nH]cnc2[C@H]1c1cc2c(F)cccn2n1 [Example 962, (S)-(4-(4-fluoropyrazolo[1,5-a]pyridin-2-yl)-6,7-dihydro-1H-imidazo[4,5-c]pyridin-5(4H)-yl)(5-(pyrazin-2-yl)-1,3,4-oxadiazol-2-yl)methanone] | < 500 nM
16 | CC(C)(F)c1nnc(C(=O)N2CCc3[nH]cnc3[C@H]2c2cc3cccc(Cl)n3n2)o1 [Example 969, (S)-(4-(7-chloropyrazolo [1,5-a]pyridin-2-yl)-6,7-dihydro-1H-imidazo[4,5-c]pyridin-5(4H)-yl)(5-(2-fluoropropan-2-yl)-1,3,4-oxadiazol-2-yl)methanone] | < 500 nM
17 | O=C(c1nnc(-c2cnccn2)o1)N1CCc2[nH]cnc2[C@H]1c1cc2cccc(Cl)n2n1 [Example 979, (S)-(4-(7-chloropyrazolo [1,5-a]pyridin-2-yl)-6,7-dihydro-1H-imidazo[4,5-c]pyridin-5(4H)-yl)(5-(pyrazin-2-yl)-1,3,4-oxadiazol-2-yl)methanone] | < 500 nM
18 | O=C(c1nnc(-c2cnn(C(F)F)c2)o1)N1CCc2[nH]cnc2[C@H]1c1cc2cccc(F)n2n1 [Example 984, (S)-(5-(1-(difluoromethyl)-1H-pyrazol-4-yl)-1,3,4-oxadiazol-2-yl)(4-(7-fluoropyrazolo[1,5-a]pyridin-2-yl)-6,7-dihydro-1H-imidazo [4,5-c]pyridin-5(4H)-yl)methanone] | 500 to 1000 nM
19 | Cc1cccn2nc([C@@H]3c4nc[nH]c4CCN3C(=O)c3nnc(C(C)(C)C)o3)cc12 [Example 1022, (S)-(5-(tert-butyl)-1,3,4-oxadiazol-2-yl)(4-(4-methylpyrazolo[1,5-a]pyridin-2-yl)-6,7-dihydro-1H-imidazo[4,5-c]pyridin-5(4H)-yl)methanone] | < 500 nM
20 | Cc1cccn2nc([C@H]3c4nc[nH]c4CCN3C(=O)c3nnc(C(C)(C)C)o3)cc12 [Example 1023, (R)-(5-(tert-butyl)-1,3,4-oxadiazol-2-yl)(4-(4-methylpyrazolo[1,5-a]pyridin-2-yl)-6,7-dihydro-1H-imidazo[4,5-c]pyridin-5(4H)-yl)methanone] | > 5000 nM
21 | Cn1ccc(-c2nnc(C(=O)N3CCc4[nH]cnc4[C@@H]3c3cc4cccc(C(F)(F)F)n4n3)o2)n1 [Example 1031, (R)-(5-(1-methyl-1H-pyrazol-3-yl)-1,3,4-oxadiazol-2-yl)(4-(7-(trifluoromethyl)pyrazolo[1,5-a]pyridin-2-yl)-6,7-dihydro-1H-imidazo [4,5-c]pyridin-5(4H)-yl)methanone] | > 5000 nM
22 | O=C(c1nnc(-c2ccccn2)o1)N1CCc2[nH]cnc2[C@@H]1c1cc2cccc(Cl)n2n1 [Example 1043, (R)-(4-(7-chloropyrazolo [1,5-a]pyridin-2-yl)-6,7-dihydro-1H-imidazo[4,5-c]pyridin-5(4H)-yl)(5-(pyridin-2-yl)-1,3,4-oxadiazol-2-yl) methanone] | > 5000 nM
23 | Cn1ncnc1C(=O)N1CCc2[nH]cnc2[C@H]1c1cc2c(Cl)cccn2n1 [Example 1050, (S)-(4-(4-chloropyrazolo [1,5-a]pyridin-2-yl)-6,7-dihydro-1H-imidazo[4,5-c]pyridin-5(4H)-yl)(1-methyl-1H-1,2,4-triazol-5-yl)methanone] | < 500 nM
24 | Cc1cccn2nc([C@H]3c4nc[nH]c4CCN3C(=O)c3nc(C4CC4)nn3C)cc12 [Example 1059] | > 5000 nM
25 | Cn1nc(C(F)(F)F)nc1C(=O)N1CCc2[nH]cnc2[C@H]1c1cc2c(C(F)(F)F)cccn2n1 [Example 1062, (S)-(1-methyl-3-(trifluoromethyl)-1H-1,2,4-triazol-5-yl)(4-(4-(trifluoromethyl)pyrazolo[1,5-a]pyridin-2-yl)-6,7-dihydro-1H-imidazo [4,5-c]pyridin-5(4H)-yl)methanone] | < 500 nM
26 | O=C(c1ccnn1C(F)F)N1CCc2[nH]cnc2[C@@H]1c1cc2cccc(Cl)n2n1 [Example 1065, (R)-(4-(7-chloropyrazolo [1,5-a]pyridin-2-yl)-6,7-dihydro-1H-imidazo[4,5-c]pyridin-5(4H)-yl)(1-(difluoromethyl)-1H-pyrazol-5-yl)methanone] | 1000 to 5000 nM
27 | Cn1cc(-c2nnc(C(=O)N3CCc4[nH]cnc4[C@@H]3c3cc4cccc(Cl)n4n3)o2)cn1 [Example 1067, (R)-(4-(7-chloropyrazolo [1,5-a]pyridin-2-yl)-6,7-dihydro-1H-imidazo[4,5-c]pyridin-5(4H)-yl)(5-(1-methyl-1H-pyrazol-4-yl)-1,3,4-oxadiazol-2-yl)methanone] | > 5000 nM
